Data on 4 compounds can be found in article PMC5896380, “Selective imaging of cathepsin L in breast cancer by fluorescent activity-based probes” (Chemical Science, 2018).

Test [1] relates to cathepsins L and B in MDA-MB-231 cells. Description: Cathepsin labeling in MDA-MB-231 cells by SDS-PAGE and western blotting. In kind it is cell-based, human. As to the method: Low passage MDA-MB-231 cells were seeded on 12-well plates (200 000 cells per well per 1 mL of medium) and cultured in Dulbecco’s Modification of Eagle’s Medium (DMEM) supplemented with 10% fetal bovine serum, 2 mM of L-glutamine, 100 units per mL penicillin and 100 μg mL^–1 streptomycin. […] To control for non-specific binding, the cells were preincubated with E64d (25 μM) for 2 hours prior to probe addition. At various time points, the medium was aspirated and the cells were gently washed twice with 1 mL of Dulbecco’s Phosphate-Buffered Saline (DPBS) and then trypsinized, harvested and centrifuged for 10 min (500 × g). The supernatants were removed by aspiration and the pellets washed with 1 mL of DPBS and centrifuged (5 min, 500 × g). The supernatants were again removed and the pellets solubilized in 100 μL 1× SDS/DTT and then boiled for 5 min. Each sample was then cooled to room temperature and sonicated (Branson Sonifier 250, duty cycle: 50, output control: 5, cycles: 5) and then 30 μL was loaded on 4–12% Bis-Tris Plus gels and run for 30 min at 200 V with a SDS-PAGE Standards/Broad Range ladder. Proteins were transferred to a 0.2 μm nitrocellulose membrane for 1 hour at 10 V and then Ponceau staining was used to verify equal loading. Membranes were blocked with 2.5% BSA in Tris-buffered saline/0.1% v/v Tween 20 (TBS-T) for 1 hour at room temperature. Cathepsins L and B were detected by primary goat anti-hCathepsin L (R&D, AF952, 0.2 mg mL^–1, 1 : 2000) and goat anti-hCathepsin B (R&D, AF953, 0.2 mg mL^–1, 1 : 1000) antibodies, respectively, followed by incubation with a secondary antibody (IRDye® 800CW, LI-COR, donkey anti-goat, 1 : 10 000). The membranes were incubated with primary antibodies for 2 hours, and with (fluorescent) secondary antibodies for 30 min (both in TBS-T at room temperature). The fluorescence was read at 700 nm (Cyanine5; excitation 685 nm) and 800 nm (secondary antibody; excitation 785 nm) using an Odyssey fluorescence imaging system (LI-COR). The images were analyzed using Image Studio software.
Background: Immunoblotting shows a protein as a band on a membrane.

A further test deals with T1, cathepsin L (Homo sapiens, UniProt P07711).
T1 construct: made in house
Nature of the test: kobs/I of activity-based probes, cathepsin L. Format: biochemical. The conditions noted are these: Fig. 6A; pseudo-first order, probe at least 5-fold excess over cathepsin, 100 μM ACC substrate; pH 5.5, 37 °C; triplicate, SD below 20%. How it is done: (§1) All kinetic experiments were performed using fMax (Molecular Devices) and CLARIOStar (BMG LABTECH) spectrofluorimeters operating in kinetic mode using 96-well plates. ACC-labeled substrates were screened using 355 nm and 460 nm wavelengths (excitation and emission, respectively). […] The buffer was prepared at room temperature and the enzyme kinetic studies were performed at 37 °C.
(§2) For the kinetic studies, five recombinant human cathepsins (B, L, V, K and S) were expressed and purified and active site titrated using an E64 inhibitor. The kobs/I parameter was measured under pseudo-first order kinetic conditions, as described.[40] The cathepsin of interest was mixed with various concentrations of probe (at least 5-fold excess over cathepsin) and 100 μM ACC-fluorescence substrate. The experiments were repeated at least three times, and the results are presented as an average. The SDs were below 20%.

Another test has as its target T2, cathepsin V (Homo sapiens, UniProt O60911).
T2 construct: made in house
Nature of the test: kobs/I of activity-based probes, cathepsin V. In kind it is biochemical. The conditions noted are these: Fig. 6A; pseudo-first order, probe at least 5-fold excess over cathepsin, 100 μM ACC substrate; pH 5.5, 37 °C; triplicate, SD below 20%. How it is done:
as §1, §2

A further test addresses T3, cathepsin B (Homo sapiens, UniProt P07858).
T3 construct: made in house
Nature of the test: kobs/I of activity-based probes, cathepsin B. The settings on record: Fig. 6A; pseudo-first order, probe at least 5-fold excess over cathepsin, 100 μM ACC substrate; pH 5.5, 37 °C; triplicate, SD below 20%. Format: biochemical. How it is done: as §1, §2

Another test addresses T4, cathepsin S (Homo sapiens, UniProt P25774).
T4 construct: made in house
Description: kobs/I of activity-based probes, cathepsin S. The conditions noted are these: Fig. 6A; pseudo-first order, probe at least 5-fold excess over cathepsin, 100 μM ACC substrate; pH 5.5, 37 °C; triplicate, SD below 20%. Format: biochemical. How it is done: as §1, §2

The target of a further test is T5, cathepsin K (Homo sapiens, UniProt P43235).
T5 construct: made in house
T5 sequence (P43235 115-329): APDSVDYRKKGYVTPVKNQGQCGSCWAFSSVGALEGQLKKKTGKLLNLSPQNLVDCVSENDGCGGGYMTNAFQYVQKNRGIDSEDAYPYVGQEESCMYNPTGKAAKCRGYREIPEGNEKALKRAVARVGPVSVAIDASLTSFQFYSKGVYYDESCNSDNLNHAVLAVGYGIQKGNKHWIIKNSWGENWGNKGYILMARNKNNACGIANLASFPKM
Description: kobs/I of activity-based probes, cathepsin K. Format: biochemical. The settings on record: Fig. 6A; pseudo-first order, probe at least 5-fold excess over cathepsin, 100 μM ACC substrate; pH 5.5, 37 °C; triplicate, SD below 20%. How it is done: as §1, §2

Test [2] deals with cathepsins L and B in HEK293T cells. Description: Cathepsin labeling by Cy5 probes in HEK293T cells, immunoblotting. The conditions noted are these: 1 μM probe, 0–18 hours. In kind it is cell-based, human. How it is done:
Figure S3 Cathepsins labeling by two Cy5-tagged probes in HEK293T cells. Panel A. Cells (100,000/well/mL) were incubated with MP-cL3 (1µM) probe for 0-18 hours. Next, cells were harvested and subjected for Western blotting. MP-cL3 probe is very selective toward cathepsin L even after 18 hours of incubation (only residual cathepsin B activity is detected).
MDA-MB-231, thus mostly heavy chain of cathepsin L is labeled. Panel B and Panel C. Cells (100,000/well/mL) were incubated with pan-specific MP-pc1 (1µ M) probe for 0-18 hours. Next, cells were harvested and subjected […]
(1 picture or pasted object on this page, not shown here)

Test [3] relates to cathepsins L, V, B, S and K. Nature of the test: Labeling of recombinant cathepsins by Cy5 probes, SDS-PAGE. Format: biochemical, human. The conditions noted are these: cathepsins 10 nM or 100 nM, probe/enzyme ratio 0.2, 1, 5 and 25, 30 min, Cy5 scan. As to the method: In experiment A, the probe concentrations were 2 nM, 10 nM, 50 nM and 250 nM, while in experiment B the probe concentrations were 20 nM, 100 nM, 500 nM and 2.5 μM. The reaction volume for all the samples was 200 μL. After 30 min, 100 μL of 3× SDS/DTT was added to the reaction mixtures, the samples were boiled for 5 min, and then 20 μL of the sample was run on 4–12% Bis-Tris Plus 15-well gels for 30 min at 200 V with 2 μL of PageRuler™ Prestained Protein Ladder. The gels were then directly scanned at 700 nm (red channel for Cy5 detection; excitation 685 nm) using an Odyssey fluorescence imaging system (LI-COR) and the images were analyzed using Image Studio software.

The test system of test [4] is HEK293T cathepsin L-transfected cells. The conditions noted are these: probes 0–10 μM incubated with cells up to 24 hours; streptavidin–HRP blot. How it is done: To evaluate probe uptake, 250 000 HEK293T cells transfected with pcDNA3:ppCatL were seeded into 6-well plates and incubated with various concentrations of bMP-cL1 and bMP-cL2 (0–10 μM) for up to 24 hours. In control experiments the cells were preincubated with 25 μM E-64d, a pan-cathepsin inhibitor, for 2 hours prior to probe addition. After incubation samples were collected and immunoblotted. Biotinylated proteins were detected as described above.

Test [5] concerns HEK293T cells overexpressing cathepsin L. The settings on record: probes 5 μM, 18 hours; streptavidin magnetic beads; immunoblotting.
Description: To evaluate MP-cL1 and MP-cL2 selectivity, 250 000 HEK293T cells overexpressing cathepsin L were plated and treated with probes and inhibitors as described above. Streptavidin-bound magnetic beads were prepared in separate tubes according to the manufacturer’s guidelines (Pierce™ Streptavidin Magnetic Beads, Thermo Scientific). Briefly, 50 μL beads were washed with sample lysis buffer and then the lysates were added. Tubes were incubated at room temperature on a rocking platform for 2 hours. The beads were then extensively washed with 50 mM Tris-buffered saline containing 0.1% Tween-20 and collected between each washing step. The beads were then re-suspended in 1× SDS loading buffer at a final volume of 100 μL, and the samples were placed at 95 °C and prepared for immunoblotting as described above to detect biotinylated proteins in the lysates, as well as in the unbound and eluted fractions. To confirm cathepsin L/B selectivity, we seeded HEK293T cells as described above. The probes were added at a 5 μM final concentration and incubated for 18 hours before the cells were harvested and lysed to isolate biotinylated proteins using streptavidin magnetic beads, as described above. The lysates plus the unbound and eluting fractions were then evaluated to detect cathepsin B (in-house mouse polyclonal Ab;[51] dilution 1 : 1000) and cathepsin L (Abcam ab62710).

T1 sequence (P07711 114-333): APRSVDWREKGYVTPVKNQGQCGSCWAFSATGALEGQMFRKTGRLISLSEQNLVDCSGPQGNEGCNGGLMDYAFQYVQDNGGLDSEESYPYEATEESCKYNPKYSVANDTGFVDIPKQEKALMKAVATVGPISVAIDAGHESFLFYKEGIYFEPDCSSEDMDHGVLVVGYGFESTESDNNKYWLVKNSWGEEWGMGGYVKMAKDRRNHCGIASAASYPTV
T4 sequence (P25774 115-331): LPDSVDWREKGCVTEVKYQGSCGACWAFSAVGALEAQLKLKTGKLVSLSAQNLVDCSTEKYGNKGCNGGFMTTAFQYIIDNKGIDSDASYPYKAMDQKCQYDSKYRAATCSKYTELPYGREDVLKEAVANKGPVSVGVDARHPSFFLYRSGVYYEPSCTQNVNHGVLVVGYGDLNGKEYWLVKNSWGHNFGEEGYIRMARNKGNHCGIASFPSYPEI
T2 sequence (O60911 114-334): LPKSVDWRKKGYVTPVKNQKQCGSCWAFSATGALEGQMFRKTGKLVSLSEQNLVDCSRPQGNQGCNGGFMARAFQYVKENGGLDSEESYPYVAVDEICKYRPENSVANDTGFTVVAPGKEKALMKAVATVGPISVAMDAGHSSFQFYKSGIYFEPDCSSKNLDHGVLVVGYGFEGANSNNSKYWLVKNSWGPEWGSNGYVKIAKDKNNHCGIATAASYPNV

Consider `CCOC(=O)[C@H]1O[C@@H]1C(=O)N[C@@H](CC(C)C)C(=O)NCCC(C)C` [E64d, reference compound], for which the “effect of pre-incubation on cathepsin labeling by probe” value in [1] (25 μM, 2 hours prior to probe addition, MDA-MB-231 cells) is listed as “blocked all cysteine cathepsin activity”.

Take “Cy5-Ala-Arg-Leu-Arg-AOMK [MP-pc1, Cy5-labeled broad spectrum (pan-specific) cathepsin probe]”: the “kobs/I Cath-L” value at cathepsin L is given as 47,500 M^-1s^-1. Also, the “kobs/I Cath-V” value on cathepsin V is on record as 53,200 M^-1s^-1. Moreover, the “kobs/I Cath-B” value on cathepsin B is listed as 265,000 M^-1s^-1. In addition, the “kobs/I Cath-S” value on cathepsin S is given as 202,500 M^-1s^-1. For the same compound, at cathepsin K, the “kobs/I Cath-K” value is reported as 30,150 M^-1s^-1. Further, the “cathepsins labeled in MDA-MB-231 cells” value in test [1] (1 μM probe, 0–18 hours, antibody overlay) is “bound mostly to cathepsin B”. For the same compound, the “cathepsins labeled in HEK293T cells” value in test [2] is “labeled both cathepsins L (25 kDa and 30 kDa) and B (30 kDa)”. For the same compound, in test [3], the “labeling of recombinant cathepsins L, V, B, S and K” value is “can label cathepsins L, V, B and S (10 nM) even at a 1 : 1 ratio”.

Take “biotin-6-ahx-His-DThr-Phe(F5)-Arg-AOMK [MP-cL1]”: the “lowest probe concentration giving a signal in the cathepsin MW range” value in [4] turned out to be 100 nM. Also, in test [5], the “cross-reactivity with cathepsin B in pulldown eluting fractions” value was “only minor cross-reactivity”.

With “biotin-6-ahx-His-DThr-Phe(F5)-Lys-AOMK [MP-cL2]”, the “lowest probe concentration giving a signal in the cathepsin MW range” value in test [4] is 100 nM. The “cross-reactivity with cathepsin B in pulldown eluting fractions” value in test [5] was “only minor cross-reactivity”.
